Biological target: interaction of human SOS1 (SOS1) with human K-RasG12C (Homo sapiens (Human), UniProt Q07889)
Assay: Biochemical assay: hK-RasG12C interaction assay with hSOS1 (HTRF)
Type: binding
Conditions: GST-hK-RasG12C with His-hSOS1, 60 min incubation at 20° C., mean, read-out: K-RasG12C - SOS interaction assay IC50 (mean)
Method: Biochemical Assay: hK-RasG12C Interaction Assay with hSOS1 This assay quantifies the equilibrium interaction of human SOS1 (SOS1) with human K-Ras^G12^C (K-RasG12C). Detection of the interaction is achieved by measuring homogenous time-resolved fluorescence resonance energy transfer (HTRF) from antiGST-Europium (FRET donor) bound to GST-K-RasG12C to anti-6His-XL665 bound to His-tagged hSOS1 (FRET-acceptor). The assay buffer containes 5 mM HEPES pH 7.4 (Applichem), 150 mM NaCl (Sigma), […] (Promega), 1 mM DTT (Thermofisher), 0.05% BSA Fraction V, pH 7.0, (ICN Biomedicals), 0.0025% (v/v) Igepal (Sigma) and 100 mM KF (FLUKA). The expression and purification of N-terminally GST-tagged human K-RasG12C (termed GST-hK-RasG12C) and N-terminally His-tagged human SOS1 (termed His10-hSOS1) is described in WO 2019/201848, page 220 line 12-34 and page 222, line 13-25 (expression) and page 222, line 26 to page 223, line 17 (purification). Concentrations of protein batches used are optimized to be within the linear range of the HTRF signal. A Ras working solution is prepared in assay buffer containing typically 10 nM GST-hK-RasG12C and 2 nM antiGST-Eu(K) (Cisbio, France). A SOS1 working solution is prepared in assay buffer containing typically 20 nM His-hSOS1 and 10 nM anti-6His-XL665 (Cisbio, France). An inhibitor control solution is prepared in assay buffer containing nM anti-6His-XL665 without SOS1. Fifty nl of a 100-fold concentrated solution of the test compound in DMSO are transferred into a black microtiter test plate (384 or 1536, Greiner Bio-One, Germany). For this, either a Hummingbird liquid handler (Digilab, MA, USA) or an Echo acoustic system (Labcyte, CA, USA) is used. All steps of the assay are performed at 20° C. A volume of 2.5 μl of the Ras working solution is added to all wells of the test plate using a Multidrop dispenser (Thermo Labsystems). After 2 min preincubation, 2.5 μl of the SOS1 working solution are added to all wells except for those wells at the side of the test plate that are subsequently filled with 2.5 μl of the inhibitor control solution. After 60 min incubation the fluorescence is measured with a Pherastar (BMG, Germany) using the HTRF module (excitation 337 nm, emission 1: 620 nm, emission 2: 665 nm). The ratiometric data (emission 2 divided by emission 1) are normalized using the controls (DMSO=0% inhibition, inhibition control wells with inhibitor control solution=100% inhibition). Compounds are tested in duplicates at up to 11 concentrations (for 20 μM, 5,7 μM, 1,6 μM, 0.47 μM, 0.13 μM, 38 nM, 11 nM, 3.1 nM, 0.89 nM, 0.25 nM and 0.073 nM). IC50 values are calculated by 4-Parameter fitting using a commercial software package (Genedata Screener, Switzerland).

Chain of interaction of human SOS1 (SOS1) with human K-RasG12C (Q07889 564-1049 limits assumed): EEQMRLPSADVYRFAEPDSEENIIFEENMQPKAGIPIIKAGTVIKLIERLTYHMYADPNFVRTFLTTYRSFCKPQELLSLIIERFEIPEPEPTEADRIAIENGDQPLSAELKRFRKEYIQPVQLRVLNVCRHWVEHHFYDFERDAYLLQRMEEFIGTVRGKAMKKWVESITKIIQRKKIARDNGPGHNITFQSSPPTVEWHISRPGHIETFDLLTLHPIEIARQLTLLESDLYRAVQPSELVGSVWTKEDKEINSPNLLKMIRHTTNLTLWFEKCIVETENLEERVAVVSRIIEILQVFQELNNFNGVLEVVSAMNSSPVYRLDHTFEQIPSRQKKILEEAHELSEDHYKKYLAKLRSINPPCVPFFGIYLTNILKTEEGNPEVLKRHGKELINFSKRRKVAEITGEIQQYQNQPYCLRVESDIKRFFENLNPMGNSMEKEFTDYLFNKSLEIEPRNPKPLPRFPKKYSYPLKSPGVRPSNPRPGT

| Compound | IC50 |
| --- | --- |
| Cc1nc(N[C@H](C)c2cccc(C(F)(F)C(C)(C)O)c2F)c2cc(P(C)(C)=O)nc(C)c2n1 [Example 11, 1-{3-[(1R)-1-{[6-(dimethylphosphoryl)-2,8-dimethylpyrido[3,4-d]pyrimidin-4-yl]amino}ethyl]-2-fluorophenyl}-1,1-difluoro-2-methylpropan-2-ol] | 52.9 nM |
| Cc1nc(N[C@H](C)c2cccc(C(F)(F)C(C)(C)O)c2F)c2cc(P(=O)(C(C)C)C(C)C)ncc2n1 [Example 12, 1-{3-[(1R)-1-({6-[di(propan-2-yl)phosphoryl]-2-methylpyrido[3,4-d]pyrimidin-4-yl}amino)ethyl]-2-fluorophenyl}-1,1-difluoro-2-methylpropan-2-ol] | 59.4 nM |
| Cc1nc(N[C@H](C)c2cccc(C(F)(F)F)c2C)c2cc(P(C)(C)=O)cnc2n1 [Example 13, 6-(dimethylphosphoryl)-2-methyl-N-{(1R)-1-[2-methyl-3-(trifluoromethyl)phenyl]ethyl}pyrido[2,3-d]pyrimidin-4-amine] | 16.3 nM |
| Cc1nc(N[C@H](C)c2cccc(C(F)(F)C(C)(C)O)c2F)c2cc(P(=O)(C(C)C)C(C)C)cnc2n1 [Example 15, 1-{3-[(1R)-1-({6-[di(propan-2-yl)phosphoryl]-2-methylpyrido[2,3-d]pyrimidin-4-yl}amino)ethyl]-2-fluorophenyl}-1,1-difluoro-2-methylpropan-2-ol] | 47.1 nM |
| Cc1nc(N[C@H](C)c2cccc(C(F)F)c2F)c2cc(P(C)(C)=O)c(C)nc2n1 [Example 18, N-{(1R)-1-[3-(difluoromethyl)-2-fluorophenyl]ethyl}-6-(dimethylphosphoryl)-2,7-dimethylpyrido[2,3-d]pyrimidin-4-amine] | 27.7 nM |
| Cc1nc(N[C@H](C)c2cccc(C(F)(F)C(C)(C)O)c2F)c2cc(P(C)(C)=O)c(C)nc2n1 [Example 19, 1-{3-[(1R)-1-{[6-(dimethylphosphoryl)-2,7-dimethylpyrido[2,3-d]pyrimidin-4-yl]amino}ethyl]-2-fluorophenyl}-1,1-difluoro-2-methylpropan-2-ol] | 14.3 nM |
| Cc1nc(N[C@H](C)c2cccc(C(F)(F)C(C)(C)O)c2F)c2cc(P(=O)(C(C)C)C(C)C)c(C)nc2n1 [Example 21, 1-{3-[(1R)-1-({6-[di(propan-2-yl)phosphoryl]-2,7-dimethylpyrido[2,3-d]pyrimidin-4-yl}amino)ethyl]-2-fluorophenyl}-1,1-difluoro-2-methylpropan-2-ol] | 121 nM |
| Cc1nc(N[C@H](C)c2cccc(C(F)(F)F)c2C)c2cc(P(C)(C)=O)c(C(F)(F)F)nc2n1 [Example 22, 6-(dimethylphosphoryl)-2-methyl-N-{(1R)-1-[2-methyl-3-(trifluoromethyl)phenyl]ethyl}-7-(trifluoromethyl)pyrido[2,3-d]pyrimidin-4-amine] | 18.7 nM |
| CC(=O)N1CCP(=O)(c2cc3c(N[C@H](C)c4cccc(C(F)(F)F)c4C)nc(C)nc3c(O)n2)CC1 [Example 30, 1-acetyl-4-[8-hydroxy-2-methyl-4-({(1R)-1-[2-methyl-3-(trifluoromethyl)phenyl]ethyl}amino)pyrido[3,4-d]pyrimidin-6-yl]-1,4lambda^5-azaphosphinan-4-one] | 1360 nM |
| CC(=O)N1CCP(=O)(c2cc3c(N[C@H](C)c4cccc(C(F)(F)F)c4C)nc(C)nc3c(CO)n2)CC1 [Example 34, 1-acetyl-4-[8-(hydroxymethyl)-2-methyl-4-({(1R)-1-[2-methyl-3-(trifluoromethyl)phenyl]ethyl}amino)pyrido[3,4-d]pyrimidin-6-yl]-1,4lambda^5-azaphosphinan-4-one] | 72.8 nM |
| CC(=O)N1CCP(=O)(c2cc3c(N[C@H](C)c4cccc(C(F)(F)F)c4C)nc(C)nc3c(C3CC3)n2)CC1 [Example 35, 1-acetyl-4-[8-cyclopropyl-2-methyl-4-({(1R)-1-[2-methyl-3-(trifluoromethyl)phenyl]ethyl}amino)pyrido[3,4-d]pyrimidin-6-yl]-1,4lambda^5-azaphosphinan-4-one] | 21.5 nM |
| CC(=O)N1CCP(=O)(c2cc3c(N[C@H](C)c4cccc(C(F)(F)F)c4C)nc(C)nc3c(C(F)F)n2)CC1 [Example 36, 1-acetyl-4-[8-(difluoromethyl)-2-methyl-4-({(1R)-1-[2-methyl-3-(trifluoromethyl)phenyl]ethyl}amino)pyrido[3,4-d]pyrimidin-6-yl]-1,4lambda^5-azaphosphinan-4-one] | 16.7 nM |

The next molecules have a lower IC50 than those just listed; values first:

| IC50 | Compound |
| --- | --- |
| 12.2 nM | CC(=S)N1CCP(=O)(c2cc3c(N[C@H](C)c4cccc(C(F)(F)F)c4C)nc(C)nc3cn2)CC1 [Example 32, 1-ethanethioyl-4-[2-methyl-4-({(1R)-1-[2-methyl-3-(trifluoromethyl)phenyl]ethyl}amino)pyrido[3,4-d]pyrimidin-6-yl]-1,4lambda^5-azaphosphinan-4-one] |
| 10.6 nM | Cc1nc(N[C@H](C)c2cccc(C(F)(F)C(C)(C)O)c2F)c2cc(P3(=O)CCCC3)cnc2n1 [Example 16, 1-[4-({(1R)-1-[3-(1,1-difluoro-2-hydroxy-2-methylpropyl)-2-fluorophenyl]ethyl}amino)-2-methylpyrido[2,3-d]pyrimidin-6-yl]-1lambda^5-phospholan-1-one] |
| 10.6 nM | Cc1nc(N[C@H](C)c2cccc(C(F)(F)F)c2C)c2cc(P(C)(C)=O)c(C)nc2n1 [Example 17, 6-(dimethylphosphoryl)-2,7-dimethyl-N-{(1R)-1-[2-methyl-3-(trifluoromethyl)phenyl]ethyl}pyrido[2,3-d]pyrimidin-4-amine] |
| 9.78 nM | Cc1nc(N[C@H](C)c2cccc(C(F)(F)C(C)(C)O)c2F)c2cc(P(C)(C)=O)cnc2n1 [Example 14, 1-{3-[(1R)-1-{[6-(dimethylphosphoryl)-2-methylpyrido[2,3-d]pyrimidin-4-yl]amino}ethyl]-2-fluorophenyl}-1,1-difluoro-2-methylpropan-2-ol] |
| 9.69 nM | COCc1nc(P2(=O)CCN(C(C)=O)CC2)cc2c(N[C@H](C)c3cccc(C(F)(F)F)c3C)nc(C)nc12 [Example 37, 1-acetyl-4-[8-(methoxymethyl)-2-methyl-4-({(1R)-1-[2-methyl-3-(trifluoromethyl)phenyl]ethyl}amino)pyrido[3,4-d]pyrimidin-6-yl]-1,4lambda^5-azaphosphinan-4-one] |
| 9.18 nM | Cc1nc(N[C@H](C)c2cccc(C(F)(F)C(C)(C)O)c2F)c2cc(P(C)(C)=O)nc(O)c2n1 [Example 26, 4-({(1R)-1-[3-(1,1-difluoro-2-hydroxy-2-methylpropyl)-2-fluorophenyl]ethyl}amino)-6-(dimethylphosphoryl)-2-methylpyrido[3,4-d]pyrimidin-8-ol] |
| 7.8 nM | CC(=O)N1CCP(=O)(c2cc3c(N[C@H](C)c4cccc(C(F)F)c4F)nc(C)nc3cn2)CC1 [Example 10, 1-acetyl-4-[4-({(1R)-1-[3-(difluoromethyl)-2-fluorophenyl]ethyl}amino)-2-methylpyrido[3,4-d]pyrimidin-6-yl]-1,4lambda^5-azaphosphinan-4-one] |
| 7.21 nM | Cc1nc(N[C@H](C)c2cccc(C(F)(F)C(C)(C)O)c2F)c2cc(P3(=O)CCCC3)c(C)nc2n1 [Example 20, 1-[4-({(1R)-1-[3-(1,1-difluoro-2-hydroxy-2-methylpropyl)-2-fluorophenyl]ethyl}amino)-2,7-dimethylpyrido[2,3-d]pyrimidin-6-yl]-1lambda^5-phospholan-1-one] |
| 7.06 nM | Cc1nc(N[C@H](C)c2cccc(C(F)(F)CO)c2F)c2cc(P(C)(C)=O)ccc2n1 [Example 33, 2-{3-[(1R)-1-{[6-(dimethylphosphoryl)-2-methylquinazolin-4-yl]amino}ethyl]-2-fluorophenyl}-2,2-difluoroethan-1-ol] |
| 6.37 nM | Cc1nc(N[C@H](C)c2cccc(C(F)(F)F)c2C)c2cc(P3(=O)CCN(C=O)CC3)ncc2n1 [Example 31, 4-[2-methyl-4-({(1R)-1-[2-methyl-3-(trifluoromethyl)phenyl]ethyl}amino)pyrido[3,4-d]pyrimidin-6-yl]-4-oxo-1,4lambda^5-azaphosphinane-1-carbaldehyde] |
